Reference: PMC6028453, “BrlR from Pseudomonas aeruginosa is a receptor for both cyclic di-GMP and pyocyanin” (Nature Communications, 2018)

Biological target: T1, BrlR-C (Pseudomonas aeruginosa, UniProt Q9HUT5)
T1 construct: His6 (cleaved yes); made in house; host or cells: E. coli (same protocol as BrlR, induction at 18 °C)
Assay: FP competition experiment, BrlR-C
Assay type: binding
Conditions: 550 μM BrlR-C, 1 nM F-c-di-GMP
Protocol: Supplementary Figure 11: FP analyses of F-c-di-GMP binding to BrlR-C. (a) Isotherms of BrlR-C binding to F-c-di-GMP. The binding experiment was carried out at 25 °C in a buffer containing 150 mM NaCl, 25 mM Tris·HCl (pH 7.5), and 1 nM F-c-di-GMP. Increasing concentrations of BrlR-C were titrated into the reaction mixture to obtain the binding isotherms. (b) Fluorescence polarization competition experiment of BrlR-C. As a control, 550 μM BrlR-C was added to the reaction tube containing 1 nM F-c-di-GMP, and different competitors were respectively added in the solution and the values of millipolarization were recorded.
(1 picture or pasted object on this page, not shown here)

T1 sequence (Q9HUT5 120-270): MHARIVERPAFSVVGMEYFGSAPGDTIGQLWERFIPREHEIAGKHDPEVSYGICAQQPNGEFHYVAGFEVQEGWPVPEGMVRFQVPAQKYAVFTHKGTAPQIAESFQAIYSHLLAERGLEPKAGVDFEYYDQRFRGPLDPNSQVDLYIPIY

Structure (SMILES): Nc1nc2c(ncn2[C@@H]2O[C@@H]3COP(=O)(O)O[C@H]4[C@@H](O)[C@H](n5cnc6c(=O)[nH]c(N)nc65)O[C@@H]4COP(=O)(O)O[C@H]3[C@H]2O)c(=O)[nH]1 [c-di-GMP, cyclic diguanylate monophosphate]
- competition with F-c-di-GMP binding to BrlR-C: not
